Source: patent US11110105B2, “Compounds, composition and uses thereof for treating cancer” (INSTITUT GUSTAVE ROUSSY, priority 2017, dated 2021)

Columns and labels:
[1] = tested on: mouse sarcoma cell line MCA205; experiment: B3Z SL8-specific T-cell activation assay, MCA205; type: cell-based; conditions: MCA205, Globin-intron-SL8
Experimental: B3Z SL8-specific T-cell activation after co-culture with (A) human melanoma A375, human lung carcinoma A549 or normal human lung fibroblast MRC5 cell lines, all transiently expressing the intron-derived SL8 peptide and the H2-K^b molecules and treated upstream with 2,5 μM or 6,25 μM isoginkgetin for 18 hours; or with (B) mouse sarcoma MCA205 or mouse melanoma B16F10 cell lines both transiently expressing the intron-derived SL8 peptide and treated upstream with 6,25 μM, 15 μM or 25 μM isoginkgetin for 18 hours. […]
Data are given as mean ±SEM. *P<0.05, **P<0.01, ***P<0.001 (unpaired student t test). […] Tumor size was assessed every 3 to 4 days until reaching the established ethical endpoints. […]
MCA205 and B16F10 mouse cell lines are transfected with the plasmid YFP-Globin-SL8-intron or with the PCDNA3 empty plasmid (negative control) with the transfection reagent jetPRIME (Ozyme) or GeneJuice (Millipore) respectively according to each manufacturer protocol. […] Finally, the β-galactosidase activity is measured using the FLUOstar OPTIMA (BMG LABTECH Gmbh, Offenburg, Germany). Results are expressed as mean ±SEM. *P<0.05, **P<0.01, ***P<0.001 (unpaired student t test).

[2] = tested on: H2-K^b molecules at the cell surface of MCA205 cells; experiment: Flow cytometry of H2-K^b expression, MCA205; type: cell-based, mouse
From the text: Flow cytometry analyses of H2-K^b expression on MCA205 and B16F10 cells treated with (A) isoginkgetin. Flow cytometry analyses of transiently expressed H2-K^b expression on A375, A549 and MRC5 cells treated with (B) isoginkgetin.

B16F10 WT tumors = experiment: Tumor challenge, B16F10 WT in immunodeficient Nu/Nu nude mice; type: in vivo, mouse; conditions: 18 mg/kg intraperitoneally, days 5, 10 and 15
Experimental: (A) Experimental settings. Growth of (B) sarcoma MCA205 or (C) melanoma B16F10 cells that both stably express the globin-SL8-intron construct or (D) MCA205 Wild Type (WT) or (E) B16F10 WT cells that were subcutaneously inoculated on the flank of immunocompetent C57BL/6 mice injected intraperitoneally with 12 mg/kg or 18 mg/kg of isoginkgetin at days 5, 10 and 15 after inoculation. Tumor size was assessed every 3 to 4 days until reaching the established ethical endpoints. Each line represents the tumor size in area (mm^2) of 6 mice in each group. Size in area (mm^2) of (F) MCA205 globin-SL8-intron, (G) B16F10 globin-SL8-intron, (H) MCA205 WT or (I) B16F10 WT tumors subcutaneously inoculated on the flank of immunodeficient Nu/Nu Nude mice injected intraperitoneally with 18 mg/kg of isoginkgetin at days 5, 10 and 15 after inoculation. Data are presented at the day before the endpoints are reached.
Each line represents the tumor size in area (mm^2) of at least 6 mice in each group. The C right panel represents the tumor size at day 27. […]
Inventors then assessed the requirement of the immune response for isoginkgetin to reduce tumor growth Immunodeficient Nu/Nu nude mice were inoculated subcutaneously with either MCA205 or B16F10 cells that stably express the Globin-intron-SL8 or WT, and were treated with the same settings as previously described (FIG. 9A). […]

SMILES | intron-SL8-derived antigen presentation (B3Z activation) ([1]; 15 μM or 35 μM) | PTPs-dependent (intron-derived SL8) antigen presentation (B3Z activation) ([1]; 15 μM, 25 μM or 35 μM) | expression of the H2-K^b molecules at the cell surface [2] | tumor growth (B16F10 WT tumors)
COc1ccc(-c2cc(=O)c3c(OC)cc(OP(=O)([O-])[O-])c(-c4cc(-c5cc(=O)c6c(OC)cc(OP(=O)([O-])[O-])cc6o5)ccc4OC)c3o2)cc1.[Na+].[Na+].[Na+].[Na+] [IM2P2] | decreases its presentation | does not increase the presentation | is not affected | 
COc1ccc(-c2cc(=O)c3c(O)cc(O)c(-c4cc(-c5cc(=O)c6c(O)cc(O)cc6o5)ccc4OC)c3o2)cc1 [Isoginkgetin, isoginkgetin] |  |  |  | No effect
